Like-named read-outs stand apart in the source and are kept apart here.
Tests used:
[1] = Human liver microsome stability; assay type: in vitro ADME; conditions: human liver microsomes, pH 7.4
NCI-H2122 = assay: Cell proliferation-inhibiting activity (ATP in viable cells, CellTiter-Glo), NCI-H2122; assay type: cell-based, human; conditions: read-out: NCI-H2122 IC50
BRAF = molecular target: T1, BRAF (Homo sapiens, UniProt P15056); assay: BRAF-inhibiting activity, time-resolved fluorescence-fluorescence resonance energy transfer assay; assay type: biochemical
T1 construct: purchased Eurofins Genomics KK; (BRAF); Thermo Fisher Scientific Inc. (MEK1)
Description: The BRAF-inhibiting activity of the compounds listed in Table 3 below was evaluated by the time-resolved fluorescence-fluorescence resonance energy transfer assay as described below.

Calu-6 = assay: Cell proliferation-inhibiting activity (ATP in viable cells, CellTiter-Glo), Calu-6; assay type: cell-based, human; conditions: read-out: Calu-6 IC50
MEK1 = molecular target: T2, MEK1 (Homo sapiens, UniProt Q02750); assay: MEK1-inhibiting activity, fluorescent polarization method (CRAF/MEK1/ERK2 cascade, IMAP); assay type: biochemical; conditions: Table 3; read-out: MEK1 IC50
T2 construct: purchased Thermo Fisher Scientific Inc. (MEK1, CRAF); Carna Biosciences, Inc. (ERK2)
Description: The MEK1-inhibiting activity of the compounds listed in Table 3 below were evaluated by the fluorescent polarization method as described below.

A549 = assay: Cell proliferation-inhibiting activity (ATP in viable cells, CellTiter-Glo), A549; assay type: cell-based, human; conditions: human lung cancer cells, 4 days, read-out: A549 IC50
[2] = NCI-H2122, 96 h, human lung cancer cells, 4 days
[3] = Calu-6, 96 h, human lung cancer cells, 4 days
[4] = human lung cancer cells, 4 days

T2 sequence (Q02750 whole entry): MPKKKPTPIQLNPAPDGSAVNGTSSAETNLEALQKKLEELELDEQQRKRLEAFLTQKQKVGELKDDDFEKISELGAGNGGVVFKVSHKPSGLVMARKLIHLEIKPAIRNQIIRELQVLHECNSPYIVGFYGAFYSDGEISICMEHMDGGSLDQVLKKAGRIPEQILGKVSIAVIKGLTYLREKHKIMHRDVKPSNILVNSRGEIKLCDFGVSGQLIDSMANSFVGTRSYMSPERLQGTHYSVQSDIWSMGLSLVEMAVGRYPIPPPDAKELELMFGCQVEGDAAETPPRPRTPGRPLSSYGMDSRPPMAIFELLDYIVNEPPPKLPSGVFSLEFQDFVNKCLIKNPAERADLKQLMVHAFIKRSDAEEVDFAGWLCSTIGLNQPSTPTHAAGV
T1 sequence (P15056 417-766 limits assumed): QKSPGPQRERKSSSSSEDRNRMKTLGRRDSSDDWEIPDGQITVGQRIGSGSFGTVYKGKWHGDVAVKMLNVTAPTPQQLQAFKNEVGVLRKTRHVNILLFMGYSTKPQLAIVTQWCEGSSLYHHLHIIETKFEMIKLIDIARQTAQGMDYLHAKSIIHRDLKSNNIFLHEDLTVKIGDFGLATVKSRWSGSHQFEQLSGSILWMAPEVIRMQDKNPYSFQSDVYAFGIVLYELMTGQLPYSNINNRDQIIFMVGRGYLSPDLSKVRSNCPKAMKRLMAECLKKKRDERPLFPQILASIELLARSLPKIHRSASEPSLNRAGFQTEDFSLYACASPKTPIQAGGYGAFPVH

| Compound | microsomal CLint at 0.99 µM [1] [µL/min/mg] | IC50 (NCI-H2122; Homo sapiens, NCI-H2122, 96 h) [nM] | IC50 (BRAF; Table 3; read-out: BRAF IC50) [nM] | IC50 (Calu-6; Homo sapiens, Calu-6, 96 h) [nM] | IC50 (MEK1) [nM] | IC50 (NCI-H2122; [2]) [nM] | IC50 (BRAF; read-out: BRAF IC50; Table 3) [nM] | IC50 (Calu-6; [3]) [nM] | IC50 (NCI-H2122; [4]) [nM] | IC50 (Calu-6; [4]) [nM] | IC50 (A549) [nM] | IC50 (A549; A549, 96 h) [nM] |
| --- | --- | --- | --- | --- | --- | --- | --- | --- | --- | --- | --- | --- |
| CC1(NS(=O)(=O)Nc2nccc(Cc3cc(C(=O)NC4CC4)c(Nc4ccc(C5CC5)cc4F)c(F)c3F)c2F)CCC1 [Compound G-5] | 86 | 57 | 78 | 374 | 751 |  |  |  |  |  |  |  |
| CONC(=O)c1cc(Cc2ccnc(NS(=O)(=O)NC3(C)CCC3)c2F)c(F)c(F)c1Nc1ccc(C2CC2)cc1F [Compound G-6, 2-(4-Cyclopropyl-2-fluoroanilino)-3,4-difluoro-5-[[3-fluoro-2-[(1-methylcyclobutyl)sulfamoylamino]pyridin-4-yl]methyl]-N-methoxybenzamide] | 57 |  |  |  | 32 | 2 | 15 | 23 |  |  |  |  |
| CCS(=O)(=O)Nc1nccc(Cc2cc(C(=O)NOC)c(Nc3ccc(C4CC4)cc3F)c(F)c2F)c1F [Compound G-8, 2-(4-Cyclopropyl-2-fluoroanilino)-5-[[2-(ethylsulfonylamino)-3-fluoropyridin-4-yl]methyl]-3,4-difluoro-N-methoxybenzamide] | 26 | 25 | 7 | 232 | 53 |  |  |  |  |  |  |  |
| CONC(=O)c1cc(Cc2ccnc(NS(C)(=O)=O)c2F)c(F)c(F)c1Nc1ccc(C2CC2)cc1F [Compound G-9, 2-(4-Cyclopropyl-2-fluoroanilino)-3,4-difluoro-5-[[3-fluoro-2-(methanesulfonamide)pyridin-4-yl]methyl]-N-methoxybenzamide] | 22 | 67 | 13 | 444 | 230 |  |  |  |  |  |  |  |
| COCCNS(=O)(=O)Nc1nccc(Cc2cc(C(=O)NC3CC3)c(Nc3ccc(I)cc3F)n(C)c2=O)c1F [Compound J-7, N-Cyclopropyl-2-(2-fluoro-4-iodoanilino)-5-[[3-fluoro-2-(2-methoxyethylsulfamoylamino)pyridin-4-yl]methyl]-1-methyl-6-oxopyridine-3-car boxamide] | 30 |  |  |  | 627 | 29 | 12 | 380 |  |  |  |  |
| CCS(=O)(=O)Nc1cccc(Cc2cc(C(=O)NOC(C)(C)C)c(Nc3ccc(I)cc3F)n(C)c2=O)c1F [Compound K-9] |  |  | 8 |  | 23 |  |  |  | 8 | 34 | 17 |  |
| CCS(=O)(=O)Nc1nccc(Cn2cc(C(=O)NC3CC3)c(Nc3ccc(I)cc3F)c(C)c2=O)c1F [Compound P-4, N-Cyclopropyl-1-[[2-(ethylsulfonylamino)-3-fluoropyridin-4-yl]methyl]-4-(2-fluoro-4-iodoanilino)-5-methyl-6-oxopyridine-3-carboxamide] | 1 |  |  |  | 34 | 24 | 16 | 45 |  |  |  |  |
| CNS(=O)(=O)Nc1nccc(Cn2cc(C(=O)NC3CC3)c(Nc3ccc(I)cc3F)c(C)c2=O)c1F [Compound P-6, N-Cyclopropyl-4-(2-fluoro-4-iodoanilino)-1-[[3-fluoro-2-(methylsulfamoylamino)pyridin-4-yl]methyl]-5-methyl-6-oxopyridine-3-carboxamide] | 4 |  |  |  | 13 | 4 | 9 | 8 |  |  |  |  |
| CNS(=O)(=O)Nc1nccc(Cn2cc(C(=O)NOC)c(Nc3ccc(I)cc3F)c(C)c2=O)c1F [Compound P-7, 4-(2-Fluoro-4-iodoanilino)-1-[[3-fluoro-2-(methylsulfamoylamino)pyridin-4-yl]methyl]-N-methoxy-5-methyl-6-oxopyridine-3-carboxamide] | 12 |  |  |  | 7 | 7 | 7 | 72 |  |  |  |  |
| NC(=O)c1c(Nc2ccc(I)cc2F)cncc1Oc1cccc(NS(=O)(=O)C2CC2)c1 [Ref-4, reference compound] | 32 |  |  |  | 11 | 2 |  | 18 |  |  |  | 2 |
| CNS(=O)(=O)Nc1nccc(Cc2c(C)c3ccc(Oc4ncccn4)cc3oc2=O)c1F [Ref-5, 3-[[3-Fluoro-2-(methylsulfamoylamino)pyridin-4-yl]methyl]-4-methyl-7-pyrimidin-2-yloxychromen-2-one, reference compound] | < 1 |  |  |  |  | 27 | 11 | 418 |  |  |  | 113 |
